From the NIST ThermoML archive (doi:10.1016/j.tca.2010.09.004)

Test: xn = mol fraction of the nth substance listed
Conditions: 101 kPa, Liquid; for speed of sound: Sing-around technique in a fixed-path interferometer; for mass density: Vibrating tube method

CCCNCCC [dipropylamine] + CCC(C)=O
Conditions | mass density [kg/m3] | speed of sound [m/s]
293.15 K, x2 = 0.0539 | 740.359 | 1208
293.15 K, x2 = 0.1021 | 742.443 | 1207.3
293.15 K, x2 = 0.1497 | 744.612 | 1206.7
293.15 K, x2 = 0.1982 | 746.936 | 1206.2
293.15 K, x2 = 0.2459 | 749.311 | 1205.7
293.15 K, x2 = 0.2983 | 752.034 | 1205.2
293.15 K, x2 = 0.3504 | 754.874 | 1204.9
293.15 K, x2 = 0.4012 | 757.757 | 1204.6
293.15 K, x2 = 0.4495 | 760.619 | 1204.3
293.15 K, x2 = 0.5068 | 764.2 | 1204.3
293.15 K, x2 = 0.5551 | 767.388 | 1204.4
293.15 K, x2 = 0.6014 | 770.563 | 1204.5
293.15 K, x2 = 0.6568 | 774.567 | 1204.8
293.15 K, x2 = 0.6968 | 777.603 | 1205.1
293.15 K, x2 = 0.7555 | 782.275 | 1205.9
293.15 K, x2 = 0.8009 | 786.111 | 1206.6
293.15 K, x2 = 0.8573 | 791.158 | 1207.8
293.15 K, x2 = 0.901 | 795.276 | 1208.9
293.15 K, x2 = 0.9479 | 799.908 | 1210.3
298.15 K, x2 = 0.0592 | 736.042 | 1186.6
298.15 K, x2 = 0.1027 | 737.924 | 1185.9
298.15 K, x2 = 0.1509 | 740.108 | 1185.2
298.15 K, x2 = 0.2001 | 742.441 | 1184.7
298.15 K, x2 = 0.2446 | 744.623 | 1184.2
298.15 K, x2 = 0.2958 | 747.263 | 1183.8
298.15 K, x2 = 0.3545 | 750.41 | 1183.3
298.15 K, x2 = 0.4003 | 753 | 1183.2
298.15 K, x2 = 0.4625 | 756.591 | 1182.5
298.15 K, x2 = 0.5006 | 759.04 | 1182.9
298.15 K, x2 = 0.5539 | 762.376 | 1182.7
298.15 K, x2 = 0.5992 | 765.587 | 1183.2
298.15 K, x2 = 0.6474 | 769.011 | 1183.4
298.15 K, x2 = 0.6987 | 772.61 | 1183.5
298.15 K, x2 = 0.7531 | 777.151 | 1184.6
298.15 K, x2 = 0.8048 | 781.469 | 1185.4
298.15 K, x2 = 0.8557 | 785.991 | 1186.6
298.15 K, x2 = 0.9041 | 790.463 | 1188
298.15 K, x2 = 0.9471 | 794.714 | 1189.1
303.15 K, x2 = 0.0658 | 731.678 | 1165.9
303.15 K, x2 = 0.0988 | 733.107 | 1165.4
303.15 K, x2 = 0.1106 | 733.626 | 1165.2
303.15 K, x2 = 0.2146 | 738.432 | 1164.1
303.15 K, x2 = 0.2595 | 740.626 | 1163.5
303.15 K, x2 = 0.3098 | 743.197 | 1163.1
303.15 K, x2 = 0.363 | 746.053 | 1162.8
303.15 K, x2 = 0.4131 | 748.859 | 1162.5
303.15 K, x2 = 0.457 | 751.472 | 1162.4
303.15 K, x2 = 0.5154 | 755.069 | 1162.3
303.15 K, x2 = 0.5554 | 757.601 | 1162.4
303.15 K, x2 = 0.6081 | 761.161 | 1162.6
303.15 K, x2 = 0.6657 | 765.248 | 1163
303.15 K, x2 = 0.7041 | 768.129 | 1163.5
303.15 K, x2 = 0.7517 | 771.855 | 1164
303.15 K, x2 = 0.8032 | 776.094 | 1164.8
303.15 K, x2 = 0.8513 | 780.312 | 1166.1
303.15 K, x2 = 0.8958 | 784.355 | 1167
303.15 K, x2 = 0.9448 | 789.085 | 1168.6

CCN(CC)CC [triethylamine] + CCC(C)=O
Conditions | mass density [kg/m3] | speed of sound [m/s]
293.15 K, x2 = 0.0684 | 730.666 | 1134.5
293.15 K, x2 = 0.1169 | 733.08 | 1136
293.15 K, x2 = 0.1627 | 735.417 | 1138
293.15 K, x2 = 0.2218 | 738.705 | 1140.6
293.15 K, x2 = 0.2686 | 741.43 | 1143
293.15 K, x2 = 0.3141 | 744.214 | 1145.5
293.15 K, x2 = 0.3549 | 746.818 | 1147.9
293.15 K, x2 = 0.4154 | 750.867 | 1151.7
293.15 K, x2 = 0.4636 | 754.264 | 1155
293.15 K, x2 = 0.5054 | 757.343 | 1158.2
293.15 K, x2 = 0.5572 | 761.332 | 1162.3
293.15 K, x2 = 0.61 | 765.576 | 1166.7
293.15 K, x2 = 0.6519 | 769.122 | 1170.6
293.15 K, x2 = 0.7051 | 773.808 | 1175.7
293.15 K, x2 = 0.7603 | 778.962 | 1181.4
293.15 K, x2 = 0.8057 | 783.447 | 1186.5
293.15 K, x2 = 0.8586 | 788.929 | 1192.8
293.15 K, x2 = 0.9019 | 793.679 | 1198.3
293.15 K, x2 = 0.9451 | 798.586 | 1204.1
298.15 K, x2 = 0.0709 | 725.999 | 1112.7
298.15 K, x2 = 0.1149 | 728.152 | 1114.2
298.15 K, x2 = 0.158 | 730.378 | 1115.9
298.15 K, x2 = 0.2181 | 733.668 | 1118.5
298.15 K, x2 = 0.261 | 736.151 | 1120.7
298.15 K, x2 = 0.3203 | 739.738 | 1123.9
298.15 K, x2 = 0.3605 | 742.292 | 1126.3
298.15 K, x2 = 0.4159 | 745.987 | 1129.9
298.15 K, x2 = 0.4607 | 749.113 | 1133
298.15 K, x2 = 0.5106 | 752.756 | 1136.7
298.15 K, x2 = 0.5701 | 757.323 | 1141.5
298.15 K, x2 = 0.6039 | 760.048 | 1144.5
298.15 K, x2 = 0.66 | 764.735 | 1149.5
298.15 K, x2 = 0.7122 | 769.362 | 1154.6
298.15 K, x2 = 0.7604 | 773.883 | 1159.8
298.15 K, x2 = 0.8023 | 777.983 | 1164.4
298.15 K, x2 = 0.8437 | 782.252 | 1169.6
298.15 K, x2 = 0.8921 | 787.444 | 1175.7
298.15 K, x2 = 0.9456 | 793.453 | 1182.8
303.15 K, x2 = 0.0686 | 721.221 | 1092.2
303.15 K, x2 = 0.1149 | 723.47 | 1093.7
303.15 K, x2 = 0.1643 | 726.011 | 1095.6
303.15 K, x2 = 0.2101 | 728.487 | 1097.6
303.15 K, x2 = 0.2639 | 731.565 | 1100.3
303.15 K, x2 = 0.3102 | 734.326 | 1102.7
303.15 K, x2 = 0.3502 | 736.816 | 1105.1
303.15 K, x2 = 0.3869 | 739.189 | 1107.4
303.15 K, x2 = 0.45 | 743.482 | 1111.7
303.15 K, x2 = 0.5081 | 747.667 | 1116
303.15 K, x2 = 0.5652 | 752.023 | 1120.6
303.15 K, x2 = 0.6051 | 755.192 | 1124
303.15 K, x2 = 0.6561 | 759.446 | 1128.7
303.15 K, x2 = 0.7087 | 764.061 | 1134
303.15 K, x2 = 0.763 | 769.188 | 1140
303.15 K, x2 = 0.7945 | 772.2 | 1143.5
303.15 K, x2 = 0.8542 | 778.238 | 1150.5
303.15 K, x2 = 0.8987 | 783.012 | 1156.3
303.15 K, x2 = 0.95 | 788.818 | 1163.4
